Where a name gives a salt, the structure may show the parent alone.
System: children and adolescents with autistic spectrum disorders
Assay: Open-label trial of Memantine in children and adolescents with autistic spectrum disorders
Format: in vivo, human
Description: In support of the present invention, an experiment was conducted to evaluate the use of Memantine in children and adolescents with autistic spectrum disorders (hereinafter referred to as “ASD”). […] A range of 2.5-10 mg per day of Memantine was applied as an open-label trial in children with ASD. Clinical observations of global function in language and/or behavior pattern were assessed. Thirty patients, including 24 males and 6 females with an average age of 8.92 years and meeting DSM-IV criteria for ASD, were treated with Memantine for greater than 8 weeks. The patients were evaluated using a global clinical improvement scale rating for improvement in language and behaviors based on parental observation and clinical appearance. Improvements were rated as follows: moderate to significant, mild to moderate, or no improvement. The therapy ranged from between 8 to 40 weeks, with an average duration of therapy of 18 weeks and an average daily dosage of 8.1 mg. After the thirty patients were treated for more than 2 months with Memantine, parents reported improvements in 26 of the 30 patients in one or more categories: attention, motor planning, language function (both receptively and expressively), and self-stimulatory behaviors. Moderate to significant improvement occurred in 16 of the 26, with milder improvement in 10 of the 26.

[1] = open-label, 2.5-10 mg per day, treated more than 2 months, global clinical improvement scale

## CC12CC3CC(C)(C1)CC(N)(C3)C2 [Memantine, 1-amino-3,5-dimethyladamantane hydrochloride]
open-label trial in ASD, overall clinical observation
  frontal executive functions (attention, speech expression, perseveration): appears to clearly improve frontal executive functions
open-label, 2.5-10 mg per day, 30 patients treated more than 2 months
  side effects: No side effects were reported
open-label, 2.5-10 mg per day, average 8.1 mg daily, treated more than 2 months (8 to 40 weeks), global clinical improvement scale
  patients with parent-reported improvements in one or more categories (attention, motor planning, language function, self-stimulatory behaviors): 26 of the 30 patients
[1]
  patients with milder improvement: 10 of the 26
  patients with moderate to significant improvement: 16 of the 26

— patent publication US20090048348A1, “METHOD FOR TREATING AUTISM” (Forest Laboratories Holdings Ltd., priority 2004, published 2009)
